In article PMC3549684 (Bioorganic & medicinal chemistry letters, 2012):

Legend:
[1] = target: T1, recombinant mouse Lp-PLA2 (Mus musculus, UniProt Q60963); details: previously shown; cited from earlier work
T1 sequence (Q60963 22-440): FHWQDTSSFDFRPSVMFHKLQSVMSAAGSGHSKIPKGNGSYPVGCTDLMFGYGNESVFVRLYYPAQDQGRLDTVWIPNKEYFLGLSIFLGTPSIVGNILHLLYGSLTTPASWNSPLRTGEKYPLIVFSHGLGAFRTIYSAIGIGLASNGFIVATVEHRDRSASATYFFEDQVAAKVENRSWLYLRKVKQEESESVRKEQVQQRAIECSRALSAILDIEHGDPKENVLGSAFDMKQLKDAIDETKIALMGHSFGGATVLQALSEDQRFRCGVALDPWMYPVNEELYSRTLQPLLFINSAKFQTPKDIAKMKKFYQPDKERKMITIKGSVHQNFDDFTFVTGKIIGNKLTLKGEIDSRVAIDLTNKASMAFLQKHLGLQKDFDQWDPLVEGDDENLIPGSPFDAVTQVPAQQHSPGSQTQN

[2] = system: other detected serine hydrolase activities in the PC3 cell proteome; assay: competitive ABPP with FP-Rh in PC3 cell proteome, selectivity; assay type: biochemical, human; details: FP-Rh probe
[3] = system: serine hydrolases detected in mouse brain; assay type: biochemical; details: FP-Rh, concentrations up to 10 µM
[4] = system: human patients with coronary heart disease; details: cited from earlier work
[5] = system: ApoE-deficient mice; details: cited from earlier work
[6] = system: other ~40 serine hydrolases detected in PC3 cells; assay: ABPP-SILAC of inhibitor-treated PC3 cells in situ, other serine hydrolases; assay type: cell-based, human; details: 100 nM, 4 hours
[7] = system: diabetic and hypercholesterolemic swine; details: cited from earlier work

| Structure (SMILES) | inhibition of mouse Lp-PLA2 [1] | inhibition of other detected serine hydrolase activities [2] | cross-reactivity with other serine hydrolases [3] | atherosclerotic plaque formation [4] | plasma Lp-PLA2 activity [4] | atherosclerotic plaque formation [5] | plasma Lp-PLA2 activity [5] | effect on other ~40 serine hydrolases in situ [6] | atherosclerotic plaque formation [7] | plasma Lp-PLA2 activity [7] |
| --- | --- | --- | --- | --- | --- | --- | --- | --- | --- | --- |
| CCCCCCCCCCC[C@@H](C[C@@H]1OC(=O)[C@H]1CCCCCC)OC(=O)[C@H](CC(C)C)NC=O [THL, tetrahydrolipstatin] | inhibited |  |  |  |  |  |  |  |  |  |
| CCN(CC)CCN(Cc1ccc(-c2ccc(C(F)(F)F)cc2)cc1)C(=O)Cn1c(SCc2ccc(F)cc2)nc(=O)c2c1CCC2 [darapladib] |  | not inhibited | neither darapladib nor JMN4 cross-reacted | significantly decrease | significantly decrease | significantly decrease | significantly decrease | not affecting any | significantly decrease | significantly decrease |
